Test results from PMC4109680, “Identification and Preclinical Pharmacology of the γ-Secretase Modulator BMS-869780” (International Journal of Alzheimer's Disease, 2014).

Assays:
[1] = Plasma protein bound fraction, rat; format: in vitro ADME
pregnane-X-receptor = target: T1, pregnane-X-receptor (Homo sapiens, UniProt O75469); experiment: Pregnane-X-receptor transactivation assay (PXR-TA), luciferase reporter in HepG2 cells; format: cell-based
T1 construct: host or cells: HepG2
Method: Determination of IC50 values for inhibition of secreted alkaline phosphatase (SEAP) was carried out using an H4 cell line stably expressing SEAP. Cells were treated overnight with compounds in 384-well format, and SEAP accumulation in the culture media was quantified using a chemiluminescence substrate. The pregnane-X-receptor transactivation assay (PXR-TA) was based on the methods of Goodwin et al. as described previously. In the 4-day rat study with BMS-869780, tissues were fixed in 10% neutral buffered formalin, embedded in paraffin, sectioned, stained with hematoxylin and eosin, and examined by light microscopy.
Figure 10 BMS-869780 caused PXR activation in vitro and lipidosis in rat liver. (a) PXR activation in the presence of BMS-869780 was evaluated in HepG2 cell cultures using a luciferase transcriptional reporter construct (●), or by assay of CYP3A4 mRNA levels in primary human hepatocyte (PHH) cultures from two individual donors (▲ and ▼). Activation in both assays is expressed as % relative to activation in the presence of rifampicin, 10 μM, in parallel cultures. (b) Liver section from vehicle-dosed rats. (c) Liver section from rats given 4 daily doses of BMS-869780 at 100 mg/kg.

Aβ1-42 (MEF PS1wt) = experiment: Aβ1-42 ELISA in MEF dKO cultures cotransfected with APP-CTF and human presenilin-1 wild type; format: cell-based; conditions: wild type human presenilin-1
Method: (§1) H4-APPsw cell cultures were maintained on Dulbecco's modified Eagle's medium (DMEM) supplemented with L-glutamine (2 mM), fetal bovine serum (10%), and G418 (100 μg/mL). […] Aβ1-42 and Aβ1-40 assays, and Notch inhibition assays, were carried out as described previously. Mouse embryonic fibroblasts deficient in PS1 and PS2 (MEF dKO) were passaged twice per week in DMEM/F-12 medium, consisting of a 1 : 1 mixture of DMEM and F-12 nutrient mixture supplemented with 10% fetal bovine serum, penicillin, and streptomycin. For expression of human presenilin-1 in MEF dKO cells, the full length human presenilin-1 cDNA open reading frame was cloned between the BamHI and XhoI sites of the vector pcDNA5/FRT (Invitrogen), placing presenilin-1 expression under the control of the CMV promoter. […]
(§2) IC50 determinations for Aβ1-42 and Aβ1-40 in H4-APPsw cultures in 384-well format were determined using homogeneous time-resolved fluorescence immunoassays as previously described. […] In other experiments using H4-APPsw cultures, Aβ was quantified by ELISA; for Aβ1-42 the combination of monoclonal antibodies was 26D6 and 565-HRP; for Aβ1-40 it was TSD and 26D6-HRP, and for Aβ1-x it was 4G8 and 26D6-HRP. […] For Aβ in transiently transfected PS1/PS2 dKO fibroblasts, Aβ1-42 was quantified using an ELISA kit (WACO), and Aβ1-40 was quantified by ELISA as described above for H4-APPsw cultures. […]

Aβ1-42 (MEF M146V) = experiment: Aβ1-42 ELISA in MEF dKO cultures cotransfected with APP-CTF and human presenilin-1 M146V allele; format: cell-based
Method: as §1, §2

Aβ1-40 (MEF PS1wt) = experiment: Aβ1-40 ELISA in MEF dKO cultures cotransfected with APP-CTF and human presenilin-1 wild type; format: cell-based; conditions: wild type human presenilin-1
Method: as §1, §2

T1 sequence (O75469 whole entry): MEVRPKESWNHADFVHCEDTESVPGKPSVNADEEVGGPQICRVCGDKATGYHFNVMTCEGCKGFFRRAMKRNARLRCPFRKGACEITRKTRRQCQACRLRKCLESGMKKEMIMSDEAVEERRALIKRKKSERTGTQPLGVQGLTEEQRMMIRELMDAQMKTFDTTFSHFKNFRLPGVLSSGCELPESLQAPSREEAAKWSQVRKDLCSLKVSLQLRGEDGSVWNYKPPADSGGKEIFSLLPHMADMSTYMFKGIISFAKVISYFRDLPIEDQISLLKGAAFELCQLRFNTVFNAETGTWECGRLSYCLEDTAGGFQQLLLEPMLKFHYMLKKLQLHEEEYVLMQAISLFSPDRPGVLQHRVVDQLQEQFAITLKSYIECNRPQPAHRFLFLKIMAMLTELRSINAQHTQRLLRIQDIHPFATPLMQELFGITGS

COc1cc(Nc2nc3n(n2)CCCC[C@H]3c2ccc(F)cc2)ccc1-n1cnc(Cl)c1 [BMS-869780]
protein bound fraction [1]: 99.5%
activity in PXR-TA (pregnane-X-receptor): robust activity
concentrations at which PXR transcription was activated (pregnane-X-receptor; HepG2 luciferase reporter, relative to rifampicin 10 μM): ≥ 0.3 µM
IC50 (Aβ1-42 (MEF PS1wt)): 0.0077 µM
IC50 (Aβ1-42 (MEF M146V); Homo sapiens, presenilin-1 M146V allele): 0.022 µM
Aβ1-42 IC50 in M146V allele relative to wild type presenilin (Aβ1-42 (MEF M146V); MEF cultures, higher IC50 (less potent) with M146V): ca. 3 fold
IC50 (Aβ1-40 (MEF PS1wt)): 0.011 µM
